Test results taken from ChEMBL document CHEMBL4627288, “Recent advances in TRPV4 agonists and antagonists” (Bioorg Med Chem Lett, 2020).

Tests used:
[1] = biological target: Transient receptor potential cation channel subfamily V member 4 (Mus musculus, UniProt Q9EPK8); assay: Agonist activity at mouse TRPV4
[2] = biological target: T1, Transient receptor potential cation channel subfamily V member 4 (Homo sapiens, UniProt Q9HBA0); assay: Antagonist activity at human TRPV4
[3] = biological target: T1, Transient receptor potential cation channel subfamily V member 4; assay: Antagonist activity at TRPV4 (unknown origin)

T1 sequence (Q9HBA0 whole entry): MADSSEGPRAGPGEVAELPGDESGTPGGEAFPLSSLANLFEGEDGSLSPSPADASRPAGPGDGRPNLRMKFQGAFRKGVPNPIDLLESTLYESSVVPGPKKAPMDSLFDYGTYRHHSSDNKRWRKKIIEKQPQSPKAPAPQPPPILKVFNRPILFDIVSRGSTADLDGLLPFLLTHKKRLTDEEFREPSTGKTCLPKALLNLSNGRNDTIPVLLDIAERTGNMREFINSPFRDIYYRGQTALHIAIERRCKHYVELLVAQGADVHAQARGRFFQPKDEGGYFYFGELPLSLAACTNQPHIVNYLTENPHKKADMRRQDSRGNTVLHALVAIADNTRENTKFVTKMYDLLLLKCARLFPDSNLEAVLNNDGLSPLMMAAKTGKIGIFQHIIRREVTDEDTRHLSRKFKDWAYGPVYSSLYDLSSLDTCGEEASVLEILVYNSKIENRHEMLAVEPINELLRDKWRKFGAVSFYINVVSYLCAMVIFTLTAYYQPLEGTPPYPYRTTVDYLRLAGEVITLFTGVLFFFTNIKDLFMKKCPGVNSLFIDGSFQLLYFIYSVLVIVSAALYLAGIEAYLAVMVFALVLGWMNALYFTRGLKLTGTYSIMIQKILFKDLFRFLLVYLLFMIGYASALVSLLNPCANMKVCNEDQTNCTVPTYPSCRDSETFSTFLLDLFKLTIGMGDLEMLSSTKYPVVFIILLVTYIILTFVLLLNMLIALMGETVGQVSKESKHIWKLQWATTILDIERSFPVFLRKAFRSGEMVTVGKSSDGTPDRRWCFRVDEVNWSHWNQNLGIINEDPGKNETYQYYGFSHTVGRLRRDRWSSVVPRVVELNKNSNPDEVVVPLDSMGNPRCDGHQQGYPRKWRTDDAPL
Sequence of Transient receptor potential cation channel subfamily V member 4 (Mus musculus, UniProt Q9EPK8) (Q9EPK8 whole entry): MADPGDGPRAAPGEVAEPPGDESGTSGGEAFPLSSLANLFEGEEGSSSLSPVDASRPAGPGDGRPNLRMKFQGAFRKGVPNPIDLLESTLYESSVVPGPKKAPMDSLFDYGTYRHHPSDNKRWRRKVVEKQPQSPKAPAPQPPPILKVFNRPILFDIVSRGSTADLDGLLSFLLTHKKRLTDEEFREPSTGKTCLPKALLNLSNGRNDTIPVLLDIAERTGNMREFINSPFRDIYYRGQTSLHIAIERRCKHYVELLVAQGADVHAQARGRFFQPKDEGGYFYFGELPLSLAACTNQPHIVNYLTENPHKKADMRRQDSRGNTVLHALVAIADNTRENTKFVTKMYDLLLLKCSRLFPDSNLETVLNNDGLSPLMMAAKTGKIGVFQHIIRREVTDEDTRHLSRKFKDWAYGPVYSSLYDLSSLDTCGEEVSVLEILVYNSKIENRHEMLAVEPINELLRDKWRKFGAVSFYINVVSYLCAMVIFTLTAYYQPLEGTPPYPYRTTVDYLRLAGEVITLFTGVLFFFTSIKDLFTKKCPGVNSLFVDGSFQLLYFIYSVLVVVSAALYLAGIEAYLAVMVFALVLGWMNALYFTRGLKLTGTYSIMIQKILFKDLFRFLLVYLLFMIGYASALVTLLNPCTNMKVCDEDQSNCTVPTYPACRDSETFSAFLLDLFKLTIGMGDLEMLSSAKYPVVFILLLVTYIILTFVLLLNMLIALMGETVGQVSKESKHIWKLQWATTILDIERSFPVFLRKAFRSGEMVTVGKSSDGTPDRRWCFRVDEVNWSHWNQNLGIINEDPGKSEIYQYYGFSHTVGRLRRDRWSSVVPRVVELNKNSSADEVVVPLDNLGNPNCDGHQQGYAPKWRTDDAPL

EC50 [1] | IC50 [2] | SMILES | also measured
0.77 µM |  | O=[N+]([O-])c1cc(Cl)ccc1S(=O)(=O)N1CCN(Cc2ccccc2)CC1 | 
 | 0.0508 µM | C/C=C/C=C/c1c(CC=C(C)C)cc2c(c1[C@H](Nc1ccccc1C(=O)O)[C@H]1c3c(CC=C(C)C)cc4c(c3[C@@H]3OC(=O)c5ccccc5N3[C@H]1/C=C/C)OC(C)(C)[C@H](O)C4=O)OC(C)(C)[C@@H](O)C2=O (racemic) | 
 | 70 µM | C/C=C/C=C/c1c(CC=C(C)C)cc(CC=C(C)C)c(O)c1CO | 
 |  | N#Cc1ccc(OCC2(O)CN(S(=O)(=O)c3ccc(Cl)cc3Cl)C2)cc1F | IC50 [3]: 0.004 µM
0.15 µM |  | CCCCC/C=C\C/C=C\C/C=C\CC1OC1CCCC(=O)O (stereo unspecified) | 
 | 81.8 µM | C/C=C(\C)[C@H]1C(C)=C[C@H]2C[C@@H](C)C[C@@H](C(=O)O)[C@@H]2[C@@]1(C)C(=O)c1cccnc1 | 
